In US6579855B1, “Adenovirus-mediated gene therapy” (priority 1998, dated 2003):

Assay: Clinical safety of gene transfer and GCV treatment (adverse effects, routine laboratory measurements)
Format: in vivo, human
Conditions: GCV 5 mg/kg/d intravenously, 14 days; only one patient, without symptoms
Procedure: All patients underwent craniotomy and tumour resection. The resection was as radical as possible under the microscope. The diagnosis of malignant glioma was confirmed by frozen sections at the time of the operation. After tumour resection, HSVtk retrovirus packaging cells (10^9 cells/10 ml) or adenoviruses (3×10^10 pfu/10 ml) were injected into the wall of the tumour cavity in 0.1-0.3 ml quantities, 10 mm deep, with 30-70 injections/patient. GCV treatment (5 mg/kg/d) was delivered intravenously through the subclavian vein twice a day for 14 days. The medication started 14 days or 5 days after the tumour resection and gene transfer in retrovirus or adenovirus patients, respectively. β-galactosidase gene was transferred to seven control group patients via a catheter which was stereotactically inserted into the tumour. The catheter was left in place until the tumour was resected in craniotomy. […]
Blood and urine samples were analyzed using routine methods before gene transfer, on the first postoperative day and weekly during hospitalization except for leucocyte differential count which was measured every second day during GCV medication. Anti-virus antibodies were measured before and two weeks after the gene transfer. […]

Nc1nc(O)c2ncn(COC(CO)CO)c2n1 [GCV, ganciclovir]
leukopenia during GCV treatment: mild and reversible leukopenia
